Target: T1, 5-lipoxygenase (Rattus norvegicus, UniProt P12527)
T1 construct: The 100,000×g supernatant fraction of Rat Basophilic Leukemia Cell Homogenate (RBL-1); endogenous in cells; host or cells: RBL-1 (rat basophilic leukemia) cells, 100,000xg supernatant of homogenate
T1 sequence (P12527 1-673): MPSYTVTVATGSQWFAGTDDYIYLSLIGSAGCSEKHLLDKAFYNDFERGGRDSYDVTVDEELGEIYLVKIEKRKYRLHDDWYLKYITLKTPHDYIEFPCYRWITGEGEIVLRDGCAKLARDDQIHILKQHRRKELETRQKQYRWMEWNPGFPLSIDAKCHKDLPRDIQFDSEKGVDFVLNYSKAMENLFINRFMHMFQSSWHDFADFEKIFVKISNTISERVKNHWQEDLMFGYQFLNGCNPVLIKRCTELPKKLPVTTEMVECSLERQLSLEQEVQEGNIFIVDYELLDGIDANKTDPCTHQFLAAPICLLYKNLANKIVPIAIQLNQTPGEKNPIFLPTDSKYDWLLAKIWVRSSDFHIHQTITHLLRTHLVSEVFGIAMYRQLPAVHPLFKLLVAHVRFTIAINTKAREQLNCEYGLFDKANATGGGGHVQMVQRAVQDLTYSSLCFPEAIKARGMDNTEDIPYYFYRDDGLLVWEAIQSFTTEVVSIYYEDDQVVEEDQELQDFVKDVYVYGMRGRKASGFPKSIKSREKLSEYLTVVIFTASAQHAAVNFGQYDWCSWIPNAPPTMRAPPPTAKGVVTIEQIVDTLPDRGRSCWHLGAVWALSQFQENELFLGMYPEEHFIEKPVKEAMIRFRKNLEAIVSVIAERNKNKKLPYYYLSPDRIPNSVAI
Test: Inhibition of 5-lipoxygenase, in vitro (5-HETE formation, RBL-1 homogenate supernatant)
Assay type: biochemical
Conditions: RBL-1 supernatant
Procedure: The compounds of the invention are evaluated with respect to 5-lipoxygenaseinhibition according to the following assay procedure.
Inhibition of 5-lipoxygenase, in vitro:
The 100,000×g supernatant fraction of Rat Basophilic Leukemia Cell Homogenate (RBL-1) serves as a 5-lipoxygenase enzyme source. The enzyme is incubated with [1-^4 C)-arachidonic acid and Ca++ in the presence and absence of test compound. The product of 5-lipoxygenase, 5-hydroxyeicosatetraenoic acid (5-HETE), is separated by thin-layer chromatography and measured by radioactivity. A compound inhibiting 5-HETE synthesis by 30% or more is considered active at that concentration.
For comparison the compound of Formula XX, a known 5-lipoxygenase inhibitor described in U.S. Pat. No. 4,755,524 was used: [drawing 29] (±)[2S*-[[3,5-bis(1,1-dimethylethyl)-4-hydroxyphenyl]thio]-1R*-methylpro poxy]acetic acid.

For CC(C)(C)c1cc(S[C@H]2CCCC[C@H]2OCC(=O)O)cc(C(C)(C)C)c1 (racemic) [Example 72, (±)cis-2-[[2-[[3,5-bis(1,1-dimethylethyl)phenyl]thio]cyclohexyl]oxy]acetic acid], the IC50 was > 100 µM.
